Molecules are shown by their SMILES. Activity calls are given as the source filed them.

The values below come from ChEMBL document CHEMBL1201862, “PubChem BioAssay data set” (2004).

What all share (type): functional
One assay concerns CHO-K1. The assay is described as follows: Counterscreen for antagonists of the orexin 1 receptor (OX1R; HCRTR1): Homogeneous time resolved fluorescence (HTRF)-based cell-based dose response assay to identify antagonists of the parental CHO-K1 cell line. [Related pubchem assays (depositor defined):AID434989, AID435008, AID463079, AID485270, AID492963, AID492964, AID492965, AID493232, AID504699, AID504701]. The settings on record: Cricetulus griseus. Background: Counterscreens check selectivity or assay interference.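 Also: potency for inhibition of ATP-stimulated IP1 production as antagonists.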

Assay [1] is described as follows: Counterscreen for antagonists of the orexin 1 receptor (OX1R; HCRTR1): Fluorescence-based cell-based high throughput dose response assay to identify antagonists of the parental CHO cell line. [Related pubchem assays (depositor defined):AID434989, AID435008, AID463079, AID485270, AID492963, AID492964, AID492965, AID493232, AID504699, AID504701].
Assay [2] has as its target T1, Orexin/Hypocretin receptor type 1 (Homo sapiens, UniProt O43613).
T1 sequence (O43613 whole entry): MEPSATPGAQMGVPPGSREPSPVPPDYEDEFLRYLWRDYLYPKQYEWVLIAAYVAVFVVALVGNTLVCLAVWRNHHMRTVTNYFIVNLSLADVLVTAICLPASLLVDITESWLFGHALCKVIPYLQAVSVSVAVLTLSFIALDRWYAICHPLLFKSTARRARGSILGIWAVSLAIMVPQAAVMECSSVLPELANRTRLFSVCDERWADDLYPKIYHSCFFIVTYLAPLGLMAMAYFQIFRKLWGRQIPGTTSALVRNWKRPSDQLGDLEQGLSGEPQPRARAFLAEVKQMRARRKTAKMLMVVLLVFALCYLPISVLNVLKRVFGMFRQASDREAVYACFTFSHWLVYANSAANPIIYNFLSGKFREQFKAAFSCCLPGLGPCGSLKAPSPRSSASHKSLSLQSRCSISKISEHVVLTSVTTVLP
The assay is described as follows: Homogeneous Time Resolved Fluorescence (HTRF)-based cell-based high throughput dose response assay for antagonists of the orexin 1 receptor (OX1R; HCRTR1). [Related pubchem assays (depositor defined):AID434989, AID435008, AID463079, AID485270, AID492963, AID492964, AID492965, AID493232, AID504717, AID504718]. In general terms: Time-resolved FRET reads energy transfer from a long-lived donor to a nearby acceptor.

The target in assay [3] is T1, Orexin/Hypocretin receptor type 1. The experiment in a line: Fluorescence-based cell-based high throughput dose response assay for antagonists of the orexin 1 receptor (OX1R; HCRTR1). [Related pubchem assays (depositor defined):AID434989, AID435008, AID463079, AID485270, AID492963, AID492964, AID492965, AID493232, AID504717, AID504718].
Assay [4] concerns the target T2, Orexin receptor type 2 (Homo sapiens, UniProt O43614).
T2 sequence (O43614 whole entry): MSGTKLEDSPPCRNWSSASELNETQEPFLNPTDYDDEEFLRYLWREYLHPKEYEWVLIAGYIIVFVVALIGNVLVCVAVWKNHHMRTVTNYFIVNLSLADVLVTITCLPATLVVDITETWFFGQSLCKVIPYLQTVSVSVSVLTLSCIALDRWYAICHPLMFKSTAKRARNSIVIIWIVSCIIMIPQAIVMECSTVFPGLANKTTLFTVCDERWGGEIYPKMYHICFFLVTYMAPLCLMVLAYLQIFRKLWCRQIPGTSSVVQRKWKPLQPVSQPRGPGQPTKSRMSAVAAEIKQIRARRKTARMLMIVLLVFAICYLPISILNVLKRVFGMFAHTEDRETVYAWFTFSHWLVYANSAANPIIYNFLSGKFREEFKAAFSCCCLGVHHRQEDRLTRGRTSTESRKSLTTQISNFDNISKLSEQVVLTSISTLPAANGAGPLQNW
The experiment in a line: Counterscreen assay for antagonists of the orexin 1 receptor (OX1R; HCRTR1): Fluorescence-based cell-based dose response assay for antagonists of the orexin 2 receptor (OX2R; HCRTR2), run by assay provider.

The target in assay [5] is T2, Orexin receptor type 2. The experiment in a line: Counterscreen assay for antagonists of the orexin 1 receptor (OX1R; HCRTR1): Homogeneous Time Resolved Fluorescence (HTRF)-based cell-based dose response assay for antagonists of the orexin 2 receptor (OX2R; HCRTR2), run by assay provider.
The target of assay [6] is DNA (cytosine-5)-methyltransferase 1 (Homo sapiens, UniProt P26358). The experiment in a line: DNMT1 methyltransferase inhibitors, confirmation, biochemical, fluorescent molecular beacon (AID 602386).
Assay [7] addresses Mitochondrial peptide methionine sulfoxide reductase (Bos taurus, UniProt P54149). The experiment in a line: Absorbance-based biochemical high throughput dose response assay for activators of Methionine sulfoxide reductase A (MsrA).
For another assay, the target named is T3, Caspase-3 (Homo sapiens, UniProt P42574).
T3 sequence (P42574 whole entry): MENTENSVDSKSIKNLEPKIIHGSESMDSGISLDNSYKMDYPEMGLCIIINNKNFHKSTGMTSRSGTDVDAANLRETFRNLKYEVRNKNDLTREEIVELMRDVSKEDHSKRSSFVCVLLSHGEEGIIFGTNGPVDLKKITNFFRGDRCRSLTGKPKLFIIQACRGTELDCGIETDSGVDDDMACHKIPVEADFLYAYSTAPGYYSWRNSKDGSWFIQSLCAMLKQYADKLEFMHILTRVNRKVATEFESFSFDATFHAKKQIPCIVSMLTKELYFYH
The experiment in a line: caspase-3 inhibitors as off-family protease, SAR follow-up, selectivity assay for SENP protease inhibitor project, biochemical, luminescence, set 2 (AID 588599).

The target of assay [8] is T4, Sentrin-specific protease 8 (Homo sapiens, UniProt Q96LD8).
T4 sequence (Q96LD8 whole entry): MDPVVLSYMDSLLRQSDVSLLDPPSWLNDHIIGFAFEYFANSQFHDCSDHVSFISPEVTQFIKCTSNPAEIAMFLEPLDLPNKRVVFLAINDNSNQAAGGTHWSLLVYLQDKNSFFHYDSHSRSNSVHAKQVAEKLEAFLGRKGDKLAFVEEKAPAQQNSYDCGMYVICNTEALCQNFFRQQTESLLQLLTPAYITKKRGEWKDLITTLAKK
The assay is described as follows: SENP8 protease inhibitors, SAR follow-up, biochemical, luminescence, set 2 (AID 588601).

Assay [9] concerns the target T5, Sentrin-specific protease 7 (Homo sapiens, UniProt Q9BQF6).
T5 sequence (Q9BQF6 whole entry): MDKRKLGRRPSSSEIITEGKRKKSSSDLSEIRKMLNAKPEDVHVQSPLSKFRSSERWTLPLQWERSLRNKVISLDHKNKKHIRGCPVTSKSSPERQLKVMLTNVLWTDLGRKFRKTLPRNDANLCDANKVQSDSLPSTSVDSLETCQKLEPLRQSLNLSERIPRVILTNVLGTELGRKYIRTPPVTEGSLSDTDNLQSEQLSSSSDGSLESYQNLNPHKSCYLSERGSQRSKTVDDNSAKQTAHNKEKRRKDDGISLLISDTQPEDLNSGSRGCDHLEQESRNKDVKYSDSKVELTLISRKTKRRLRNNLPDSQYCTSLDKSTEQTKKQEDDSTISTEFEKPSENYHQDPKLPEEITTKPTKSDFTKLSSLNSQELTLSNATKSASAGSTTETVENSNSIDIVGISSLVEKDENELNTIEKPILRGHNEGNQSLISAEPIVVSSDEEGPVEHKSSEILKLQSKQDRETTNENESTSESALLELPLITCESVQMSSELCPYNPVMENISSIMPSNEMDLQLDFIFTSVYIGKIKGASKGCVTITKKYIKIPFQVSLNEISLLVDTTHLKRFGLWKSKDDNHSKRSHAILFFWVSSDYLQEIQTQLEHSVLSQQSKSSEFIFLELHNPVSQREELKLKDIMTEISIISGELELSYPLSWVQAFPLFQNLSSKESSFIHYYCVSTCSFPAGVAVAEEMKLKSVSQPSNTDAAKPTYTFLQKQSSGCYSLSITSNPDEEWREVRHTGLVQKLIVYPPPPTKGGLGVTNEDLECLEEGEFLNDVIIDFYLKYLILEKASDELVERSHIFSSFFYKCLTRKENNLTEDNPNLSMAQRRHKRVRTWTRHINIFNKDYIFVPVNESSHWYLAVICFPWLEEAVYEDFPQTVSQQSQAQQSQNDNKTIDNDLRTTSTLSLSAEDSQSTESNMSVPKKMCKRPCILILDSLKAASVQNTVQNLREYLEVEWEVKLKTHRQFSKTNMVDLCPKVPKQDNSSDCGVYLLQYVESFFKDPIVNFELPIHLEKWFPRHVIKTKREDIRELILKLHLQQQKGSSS
The experiment in a line: SENP7 protease inhibitors, SAR follow-up, biochemical, luminescence, set 2 (AID 588600).

For assay [10], the target named is T6, Sentrin-specific protease 6 (Homo sapiens, UniProt Q9GZR1).
T6 sequence (Q9GZR1 whole entry): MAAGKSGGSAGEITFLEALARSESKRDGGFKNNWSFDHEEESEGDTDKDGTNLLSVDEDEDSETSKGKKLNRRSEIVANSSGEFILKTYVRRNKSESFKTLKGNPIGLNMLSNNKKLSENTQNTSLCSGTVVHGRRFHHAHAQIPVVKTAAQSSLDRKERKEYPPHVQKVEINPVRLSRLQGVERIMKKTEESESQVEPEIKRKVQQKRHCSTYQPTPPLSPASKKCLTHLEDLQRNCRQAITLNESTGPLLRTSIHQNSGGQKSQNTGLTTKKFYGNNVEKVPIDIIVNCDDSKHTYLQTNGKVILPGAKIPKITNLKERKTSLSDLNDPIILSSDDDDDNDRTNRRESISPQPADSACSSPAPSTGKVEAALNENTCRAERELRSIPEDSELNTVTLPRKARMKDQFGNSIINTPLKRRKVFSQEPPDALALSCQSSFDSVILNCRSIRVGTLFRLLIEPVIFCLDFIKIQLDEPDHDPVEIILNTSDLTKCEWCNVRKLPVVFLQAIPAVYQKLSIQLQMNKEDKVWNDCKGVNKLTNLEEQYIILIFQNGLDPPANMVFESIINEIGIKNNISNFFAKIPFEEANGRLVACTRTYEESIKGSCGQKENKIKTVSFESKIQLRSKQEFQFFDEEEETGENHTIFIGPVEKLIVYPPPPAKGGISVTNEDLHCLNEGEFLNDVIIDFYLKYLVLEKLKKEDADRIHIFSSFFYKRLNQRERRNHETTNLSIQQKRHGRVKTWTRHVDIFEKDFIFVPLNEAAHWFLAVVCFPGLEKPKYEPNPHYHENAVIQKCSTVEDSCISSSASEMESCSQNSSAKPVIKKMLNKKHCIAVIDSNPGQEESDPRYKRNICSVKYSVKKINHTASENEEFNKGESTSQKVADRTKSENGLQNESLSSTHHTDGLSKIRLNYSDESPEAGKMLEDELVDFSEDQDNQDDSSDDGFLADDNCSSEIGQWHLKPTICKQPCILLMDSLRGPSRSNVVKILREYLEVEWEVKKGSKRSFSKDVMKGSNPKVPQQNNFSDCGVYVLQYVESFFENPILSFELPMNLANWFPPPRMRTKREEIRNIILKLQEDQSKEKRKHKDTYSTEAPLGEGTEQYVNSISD
The assay is described as follows: SENP6 protease inhibitors, SAR follow-up, biochemical, luminescence, set 2 (AID 588598).

Assay [11] concerns the target Melanin-concentrating hormone receptor 1 (Homo sapiens, UniProt Q99705). The experiment in a line: Late-stage fluorescence-based counterscreen for antagonists of the G-protein coupled receptor 7 (GPR7): cell-based dose response assay to identify antagonists of the melanin-concentrating hormone receptor 1 (MCHR1) Set 6.
Assay [12] concerns the target T7, Neuropeptides B/W receptor type 1 (Homo sapiens, UniProt P48145).
T7 sequence (P48145 whole entry): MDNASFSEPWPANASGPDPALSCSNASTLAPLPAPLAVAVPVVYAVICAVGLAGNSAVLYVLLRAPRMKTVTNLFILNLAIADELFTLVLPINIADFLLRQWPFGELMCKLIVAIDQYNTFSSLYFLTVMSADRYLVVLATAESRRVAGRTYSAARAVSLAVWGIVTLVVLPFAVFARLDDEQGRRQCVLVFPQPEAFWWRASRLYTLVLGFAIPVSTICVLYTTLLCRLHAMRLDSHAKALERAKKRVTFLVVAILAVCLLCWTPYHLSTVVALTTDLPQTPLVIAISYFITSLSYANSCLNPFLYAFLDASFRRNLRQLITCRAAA
The experiment in a line: GPR7 antagonist potency, late-stage follow-up, cell-based, fluorescence, dose response, set 6 (AID 588583).

For a further assay, the target named is Aurora kinase A (Homo sapiens, UniProt O14965).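 Also: value from the Navigating the Kinome kinase panel profiling, panel entry STK6.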
Another assay addresses Aurora kinase B (Homo sapiens, UniProt Q96GD4).

Melanin-concentrating hormone receptor 1, sequence (Q99705 whole entry): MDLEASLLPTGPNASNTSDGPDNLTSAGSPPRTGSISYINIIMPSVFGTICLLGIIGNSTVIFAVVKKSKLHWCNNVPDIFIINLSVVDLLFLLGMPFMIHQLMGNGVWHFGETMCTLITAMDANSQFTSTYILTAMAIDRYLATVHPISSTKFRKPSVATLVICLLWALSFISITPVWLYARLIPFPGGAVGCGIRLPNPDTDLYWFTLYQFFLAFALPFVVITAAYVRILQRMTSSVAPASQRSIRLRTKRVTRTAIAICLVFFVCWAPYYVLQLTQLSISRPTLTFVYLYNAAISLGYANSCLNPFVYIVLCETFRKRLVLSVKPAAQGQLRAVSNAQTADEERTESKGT
Aurora kinase A, sequence (O14965 whole entry): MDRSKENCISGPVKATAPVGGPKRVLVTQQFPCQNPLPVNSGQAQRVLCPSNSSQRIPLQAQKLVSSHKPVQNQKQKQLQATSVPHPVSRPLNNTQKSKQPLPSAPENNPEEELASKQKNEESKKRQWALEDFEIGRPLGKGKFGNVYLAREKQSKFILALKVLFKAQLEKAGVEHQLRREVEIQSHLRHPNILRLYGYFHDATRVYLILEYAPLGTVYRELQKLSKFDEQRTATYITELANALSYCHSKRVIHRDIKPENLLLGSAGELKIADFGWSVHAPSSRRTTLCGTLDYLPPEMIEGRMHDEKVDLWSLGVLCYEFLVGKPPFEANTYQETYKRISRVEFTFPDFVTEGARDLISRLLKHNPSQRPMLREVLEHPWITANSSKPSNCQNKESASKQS
Mitochondrial peptide methionine sulfoxide reductase, sequence (P54149 whole entry): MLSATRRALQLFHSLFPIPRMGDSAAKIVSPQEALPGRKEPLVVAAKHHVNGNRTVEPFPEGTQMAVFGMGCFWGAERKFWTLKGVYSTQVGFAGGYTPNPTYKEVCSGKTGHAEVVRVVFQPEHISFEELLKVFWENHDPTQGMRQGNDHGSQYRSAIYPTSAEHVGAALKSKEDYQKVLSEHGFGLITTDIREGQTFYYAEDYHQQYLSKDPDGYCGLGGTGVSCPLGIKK
Aurora kinase B, sequence (Q96GD4 whole entry): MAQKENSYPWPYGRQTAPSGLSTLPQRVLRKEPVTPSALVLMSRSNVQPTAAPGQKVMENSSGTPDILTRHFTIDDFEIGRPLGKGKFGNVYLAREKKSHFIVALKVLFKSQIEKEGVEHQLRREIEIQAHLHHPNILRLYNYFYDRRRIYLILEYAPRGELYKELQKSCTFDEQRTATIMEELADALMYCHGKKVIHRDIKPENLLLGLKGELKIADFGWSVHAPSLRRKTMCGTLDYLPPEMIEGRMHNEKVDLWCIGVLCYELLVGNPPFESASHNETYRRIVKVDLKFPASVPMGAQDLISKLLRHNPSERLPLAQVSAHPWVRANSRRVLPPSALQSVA
DNA (cytosine-5)-methyltransferase 1, sequence (P26358 whole entry): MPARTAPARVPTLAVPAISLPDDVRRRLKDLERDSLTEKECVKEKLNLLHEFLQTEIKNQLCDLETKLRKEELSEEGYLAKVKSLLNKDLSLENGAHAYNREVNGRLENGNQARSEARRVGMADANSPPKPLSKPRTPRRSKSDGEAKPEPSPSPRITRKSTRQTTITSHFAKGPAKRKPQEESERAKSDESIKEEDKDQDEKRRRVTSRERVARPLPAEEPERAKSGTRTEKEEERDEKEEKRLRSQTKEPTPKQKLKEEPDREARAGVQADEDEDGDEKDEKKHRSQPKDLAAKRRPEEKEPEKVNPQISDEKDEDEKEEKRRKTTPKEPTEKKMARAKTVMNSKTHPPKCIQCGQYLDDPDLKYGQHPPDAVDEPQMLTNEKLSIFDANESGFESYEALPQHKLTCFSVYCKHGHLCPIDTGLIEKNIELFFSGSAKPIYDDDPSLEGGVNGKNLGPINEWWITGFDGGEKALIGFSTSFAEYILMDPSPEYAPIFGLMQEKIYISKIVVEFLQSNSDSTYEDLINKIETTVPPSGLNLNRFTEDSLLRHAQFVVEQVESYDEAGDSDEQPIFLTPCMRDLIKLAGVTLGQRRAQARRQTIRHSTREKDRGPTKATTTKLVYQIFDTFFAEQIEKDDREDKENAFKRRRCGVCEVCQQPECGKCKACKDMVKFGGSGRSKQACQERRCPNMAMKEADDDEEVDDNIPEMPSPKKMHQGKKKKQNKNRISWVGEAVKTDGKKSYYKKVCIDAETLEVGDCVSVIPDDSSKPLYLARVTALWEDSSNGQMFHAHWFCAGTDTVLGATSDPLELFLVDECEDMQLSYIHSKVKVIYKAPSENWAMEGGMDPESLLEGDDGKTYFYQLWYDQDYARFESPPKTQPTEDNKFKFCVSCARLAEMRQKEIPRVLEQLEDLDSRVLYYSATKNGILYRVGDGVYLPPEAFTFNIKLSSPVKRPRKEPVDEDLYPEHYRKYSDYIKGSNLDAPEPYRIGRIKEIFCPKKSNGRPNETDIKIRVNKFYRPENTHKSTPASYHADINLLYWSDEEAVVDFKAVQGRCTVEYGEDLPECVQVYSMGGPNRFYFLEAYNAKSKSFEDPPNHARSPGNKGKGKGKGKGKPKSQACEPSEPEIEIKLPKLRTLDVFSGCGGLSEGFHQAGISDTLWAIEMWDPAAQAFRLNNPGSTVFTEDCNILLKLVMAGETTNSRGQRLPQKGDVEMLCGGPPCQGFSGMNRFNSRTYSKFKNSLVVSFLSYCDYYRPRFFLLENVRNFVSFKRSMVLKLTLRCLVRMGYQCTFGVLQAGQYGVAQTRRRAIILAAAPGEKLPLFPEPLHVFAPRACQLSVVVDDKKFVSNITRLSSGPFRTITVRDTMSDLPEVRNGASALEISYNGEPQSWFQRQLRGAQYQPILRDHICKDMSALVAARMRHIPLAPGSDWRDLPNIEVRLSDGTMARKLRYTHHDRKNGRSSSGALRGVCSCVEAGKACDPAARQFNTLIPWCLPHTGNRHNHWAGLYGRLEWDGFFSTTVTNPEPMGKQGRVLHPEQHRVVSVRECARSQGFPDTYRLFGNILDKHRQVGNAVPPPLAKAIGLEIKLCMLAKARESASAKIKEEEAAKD

The term IC50 denotes the concentration that gives 50% inhibition. `COc1ccc(-c2cc3nc(-c4ccccc4)cc(N4CCC5(CC4)OCCO5)n3n2)cc1`: the IC50 in the assay with CHO-K1 is > 66.2 µM (inactive); in assay [1], > 49.8 µM (inactive); in assay [2] it was 5.7 µM (active); in assay [3] it was 23.6 µM (inactive); on Orexin receptor type 2 [4], 10.8 µM (inactive); at Orexin receptor type 2 [5], > 50 µM (inactive).

A word on the EC50: it is the concentration that produces a half-maximal response. As to `O=C1C(=O)c2c(ccc3ccccc23)-c2ccccc21`, the IC50 in assay [6] is 1.34 µM (active). For the same compound, the EC50 in assay [7] is > 104 µM (inactive).

Take `CC1CN(C(=O)C(=O)c2c[nH]c3ccccc23)CC(C)O1` (configuration not stated): the IC50 (on Caspase-3; in [8]; in assay [9]; in [10]) was > 99 µM (inactive) each time.

On to `COCc1c(C(=O)Nc2nc3ccc(C)cc3s2)sc2cccc(F)c12`, for which the IC50 (on Caspase-3; in assay [8]; in [9]; in assay [10]) was > 99 µM (inactive) throughout.

As to `Cc1ccccc1Cn1ncc(Cl)c(C(C#N)c2ccccc2)c1=O` (configuration not stated), the IC50 in [11] and in [12] was 0.484 µM (active) throughout.

`N#CC(c1ccc(Cl)cc1F)c1c(Cl)cnn(Cc2cccc3ccccc23)c1=O` (configuration not stated): the IC50 in [11] and in assay [12] was 0.594 µM (active) each time.

One may read the Ki as the equilibrium dissociation constant of an inhibitor or competing ligand from its target. With `Cc1oc2ncnc(N)c2c1-c1ccc(NC(=O)Nc2cc(C(F)(F)F)ccc2F)cc1`, the Ki at Aurora kinase A was 0.126 µM (active); at Aurora kinase B, 0.00794 µM (active).
